Earlier results in US20220202699A1 (priority 2020, published 2022).

What was measured:
[1] = in vivo
influenza A virus [2] = test system: influenza A virus
influenza A virus [3] = test system: influenza A virus; remark: listed apart in the source
[4] = test system: inflammatory cell infiltrates (neutrophils and lymphocytes); settings: in vivo
[5] = test system: Toll-like receptors (TLR); settings: suppress innate immunity

Row | SMILES | bronchodilator effect [1] | binding of the influenza A virus to the surrogate host cells (influenza A virus [2]) | membrane convergence of influenza A and host cell (influenza A virus [2]; influenza A, model MDCK cells) | binding affinity for the influenza A virus (influenza A virus [3]) | virus-induced proinflammatory cytokines [4] | functioning as deactivators of Toll-like receptors (TLR) [5]
1 | CC(C)(C)NCC(O)c1ccc(O)c(CO)c1 (stereo not drawn) [Albuterol] | effective bronchodilator |  |  |  |  | 
2 | CCCCC/C=C\C/C=C\C/C=C\C/C=C\CCCC(=O)OC(COC(=O)CCCCCCCCCCCCCCCCC)COP(=O)(O)OC1C(O)C(O)C(O)C(O)C1O (stereo not drawn) [PI, phosphatidyl inositol] |  | prevent the binding | inhibited | high binding affinity | reduced | deactivators of Toll-like receptors
